Each block holds one molecule with its values, some of them ahead of it.
Tests used:
[1] = system: Colon 26; assay: (§1) Inhibitory concentration of compound was tested against Colon 26 tumor growth cell line; type: functional, cell-based; details: Mus musculus
[2] = system: Mus musculus; assay: Compound was evaluated for the life span assay against P388 Leukemia in mice (Controls died in an average of 9.8 days) at 0.39 (mg/kg) dose; type: functional
[3] = system: Mus musculus; assay: Compound was evaluated for the activity against LC-6 Non-Small cell lung carcinoma in mice by tumor weight assay at 20 (mg/kg) dose experiment-1; type: functional
[4] = system: Mus musculus; assay: Compound was evaluated for the life span assay against P388 Leukemia in mice (Controls died in an average of 9.8 days) at 1.56 (mg/kg) dose; type: functional
[5] = system: Mus musculus; assay: Compound was evaluated for the life span assay against P388 Leukemia in mice (Controls died in an average of 9.8 days) at 0.78 (mg/kg) dose; type: functional
[6] = system: Mus musculus; assay: Compound was evaluated for the life span assay against P388 Leukemia in mice (Controls died in an average of 9.8 days) at 0.2 (mg/kg) dose; type: functional
[7] = system: Mus musculus; assay: Compound was evaluated for the activity against LC-6 Non-Small cell lung carcinoma in mice by tumor weight assay at 20 (mg/kg) dose experiment-2; type: functional
[8] = system: Mus musculus; assay: Compound was evaluated for the life span assay against P388 Leukemia in mice (Controls died in an average of 9.8 days) at 3.13 (mg/kg) dose; type: functional
[9] = system: Mus musculus; assay: Compound was evaluated for the activity against Colon 26 Mouse colorectal carcinoma in mice by tumor weight assay at 20 (mg/kg) dose; type: functional
[10] = system: Mus musculus; assay: Compound was evaluated for the life span assay against P388 Leukemia in mice (Controls died in an average of 9.8 days) at 12.5 (mg/kg) dose; type: functional
[11] = system: MC-38; assay: Inhibitory concentration of compound was tested against Colon 38 tumor growth cell line; type: functional, cell-based; details: Mus musculus
[12] = system: Mus musculus; assay: Compound was evaluated for the life span assay against P388 Leukemia in mice (Controls died in an average of 9.8 days) at […] (mg/kg) dose; type: functional
[13] = system: Mus musculus; assay: Compound was evaluated for the activity against LC-6 Non-Small cell lung carcinoma in mice by tumor weight assay at 10 (mg/kg) dose experiment-2; type: functional
[14] = system: Mus musculus; assay: Compound was evaluated for the activity against LC-6 Non-Small cell lung carcinoma in mice by tumor weight assay at 40 (mg/kg) dose experiment-2; type: functional
[15] = system: KB; assay: Inhibitory concentration of compound was tested against KB tumor growth cell line; type: functional, cell-based; details: Homo sapiens
[16] = system: Mus musculus; assay: Compound was evaluated for the activity against Colon 26 Mouse colorectal carcinoma in mice by tumor weight assay at 10 (mg/kg) dose; type: functional
[17] = system: P388; assay: Inhibitory concentration of compound was tested against P388 tumor growth cell line; type: functional, cell-based; details: Mus musculus
[18] = system: Mus musculus; assay: Compound was evaluated for the activity against LC-6 Non-Small cell lung carcinoma in mice by tumor weight assay at 10 (mg/kg) dose in experiment-1; type: functional
[19] = system: P388; assay: Inhibitory concentration of compound was tested against P388:Methotrexate resistant cells tumor growth cell line; type: functional, cell-based; details: Mus musculus
[20] = system: Colon 26; assay: Inhibitory concentration of compound was tested against Colon 26 Mouse Colorectal Carcinoma on 4 hour exposure; type: functional, cell-based; details: Colon 26, 4 h
[21] = molecular target: T1, Thymidylate synthase (Lactobacillus casei, UniProt P00469); assay: Binding affinity against TS
T1 sequence (P00469 whole entry): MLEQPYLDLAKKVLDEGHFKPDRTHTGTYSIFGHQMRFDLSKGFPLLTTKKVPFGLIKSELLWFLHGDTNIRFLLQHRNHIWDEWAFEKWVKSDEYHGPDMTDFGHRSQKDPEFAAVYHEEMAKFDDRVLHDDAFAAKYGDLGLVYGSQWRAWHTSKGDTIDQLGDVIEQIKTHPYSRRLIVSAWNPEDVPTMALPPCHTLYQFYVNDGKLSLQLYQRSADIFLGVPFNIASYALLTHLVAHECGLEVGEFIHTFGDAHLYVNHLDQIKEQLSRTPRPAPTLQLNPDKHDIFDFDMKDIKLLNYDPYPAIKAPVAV

[22] = molecular target: T2, Dihydrofolate reductase (Mus musculus, UniProt P00375); assay: Binding affinity against dihydrofolate reductase
T2 sequence (P00375 whole entry): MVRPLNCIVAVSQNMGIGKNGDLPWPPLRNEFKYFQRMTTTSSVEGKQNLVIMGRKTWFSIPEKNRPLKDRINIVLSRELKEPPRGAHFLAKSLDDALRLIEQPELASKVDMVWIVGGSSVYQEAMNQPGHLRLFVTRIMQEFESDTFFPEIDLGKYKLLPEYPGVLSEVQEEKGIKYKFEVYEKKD

[23] = molecular target: T2, Dihydrofolate reductase; assay: Compound was tested for the inhibition of dihydrofolate reductase in P388 cells; type: cell-based
[24] = system: Mus musculus; assay: Compound was evaluated for the life span assay against P388 Leukemia in mice (Controls died in an average of 9.8 days) at 50 (mg/kg) dose; type: functional
[25] = system: Mus musculus; assay: Compound was evaluated for the activity against Colon 26 Mouse colorectal carcinoma in mice by tumor weight assay at 5 (mg/kg) dose; type: functional
[26] = system: Mus musculus; assay: Compound was evaluated for the activity against Colon 26 Mouse colorectal carcinoma in mice by tumor weight assay at 2.5 (mg/kg) dose; type: functional
[27] = system: P388 (Mus musculus); assay: Inhibitory concentration of compound was tested against P388 tumor growth cell line
[28] = system: Mus musculus; assay: Compound was evaluated for the life span assay and the activity against P388 Leukemia in mice (Controls died in an average of 9.8 days) at 3.13 (mg/kg) dose; type: functional
[29] = species: Mus musculus; assay: as §1; type: functional
[30] = system: Mus musculus; assay: Compound was evaluated for the activity against LC-6 Non-Small cell lung carcinoma in mice by tumor weight assay at 10 (mg/kg) dose; type: functional
[31] = system: Mus musculus; assay: Compound was evaluated for the activity against LC-6 Non-Small cell lung carcinoma in mice by tumor weight assay at 20 (mg/kg) dose; type: functional
[32] = system: Mus musculus; assay: Compound was evaluated for the activity against LC-6 Non-Small cell lung carcinoma in mice by tumor weight assay at 40 (mg/kg) dose; type: functional
[33] = system: Mus musculus; assay: Compound was evaluated for the activity against Colon 26 Mouse colorectal carcinoma in mice by tumor weight assay at 40 (mg/kg) dose
[34] = system: Mus musculus; assay: Compound was evaluated for the life span assay against P388 Leukemia in mice (Controls died in an average of 9.8 days) at 0.05 (mg/kg) dose; type: functional
[35] = system: Mus musculus; assay: Compound was evaluated for the activity against LC-6 Non-Small cell lung carcinoma in mice by tumor weight assay at 2.5 (mg/kg) dose experiment-1; type: functional
[36] = system: Mus musculus; assay: Compound was evaluated for the activity against LC-6 Non-Small cell lung carcinoma in mice by tumor weight assay at 2.5 (mg/kg) dose experiment-2; type: functional
[37] = system: Mus musculus; assay: Compound was evaluated for the activity against LC-6 Non-Small cell lung carcinoma in mice by tumor weight assay at 5 (mg/kg) dose experiment-2; type: functional
[38] = system: Mus musculus; assay: Compound was evaluated for the activity against Colon 26 Mouse colorectal carcinoma in mice by tumor weight assay at 1.25 (mg/kg) dose; type: functional
[39] = system: Mus musculus; assay: Compound was evaluated for the life span assay against P388 Leukemia in mice (Controls died in an average of 9.8 days) at 0.1 (mg/kg) dose; type: functional
[40] = system: Mus musculus; assay: Compound was evaluated for the activity against Colon 26 Mouse colorectal carcinoma in mice by tumor weight assay at 0.3 (mg/kg) dose; type: functional
[41] = system: Mus musculus; assay: Compound was evaluated for the activity against LC-6 Non-Small cell lung carcinoma in mice by tumor weight assay at 5 (mg/kg) dose experiment-1; type: functional
[42] = system: Mus musculus; assay: Compound was evaluated for the activity against LC-6 Non-Small cell lung carcinoma in mice by tumor weight assay at 1.3 (mg/kg) dose experiment-2; type: functional
[43] = system: Mus musculus; assay: Compound was evaluated for the activity against Colon 26 Mouse colorectal carcinoma in mice by tumor weight assay at 0.6 (mg/kg) dose; type: functional
[44] = system: P388; assay: inhibitory concentration of compound was tested against P388:Methotrexate resistant cells tumor growth cell line; type: functional, cell-based; details: Mus musculus

Compound: CCC(Cc1cnc2nc(N)nc(N)c2n1)c1ccc(C(=O)N[C@@H](CCC(=O)O)C(=O)O)cc1 (stereo partly specified) [EDATREXATE]
IC50 [1]: 4.8 nM
T/C [2]: 135%
T/C [3]: 38%
T/C [4]: 155%
T/C [5]: 136%
T/C [6]: 114%
T/C [7]: 1%
T/C [8]: 162%
T/C [9]: 64%
T/C [10]: 157%
IC50 [11]: 11 nM
T/C [12]: 165%
T/C [13]: 22%
T/C [14]: 1%
IC50 [15]: 3 nM
T/C [16]: 70%
IC50 [17]: 4.3 nM
T/C [18]: 63%
IC50 [19]: 44 nM
IC50 [20]: > 40000 nM

Compound: Nc1nc2[nH]cc(CCc3ccc(C(=O)N[C@@H](CCC(=O)O)C(=O)O)cc3)c2c(=O)[nH]1 [PEMETREXED]
Ki [21]: 550 nM
Ki [22]: 560 nM

Compound: Nc1nc(N)c2c(n1)CCC2CCc1ccc(C(=O)NC(CCC(=O)O)C(=O)O)cc1 (stereo unspecified)
IC50 [23]: 72 nM
IC50 [1]: 8 nM
T/C [5]: 129%
T/C [8]: 135%
T/C [10]: 147%
T/C [24]: 148%
IC50 [11]: 10 nM
T/C [25]: 62%
IC50 [15]: 4.1 nM
T/C [26]: 95%
T/C [16]: 41%
IC50 [17]: 7.1 nM
IC50 [19]: 64 nM
IC50 [20]: 190 nM

IC50 [15]: > 1000 nM
IC50 [27]: > 1000 nM
IC50 [19]: > 1000 nM
Compound: Nc1nc(O)c2c(n1)CCC2CCCc1ccc(C(=O)NC(CCC(=O)O)C(=O)O)cc1 (stereo unspecified)
IC50 [1]: > 1000 nM

Compound: CN(Cc1cnc2nc(N)nc(N)c2n1)c1ccc(C(=O)N[C@@H](CCC(=O)O)C(=O)O)cc1 [METHOTREXATE]
T/C [28]: 149%
IC50 [29]: 31 nM
T/C [30]: 100%
T/C [5]: 122%
T/C [9]: 65%
T/C [12]: 168%
T/C [31]: 53%
IC50 [15]: 19 nM
T/C [16]: 71%
IC50 [17]: 23 nM
IC50 [19]: 223 nM
T/C [32]: 35%
IC50 [20]: > 40000 nM
T/C [33]: 31%

Compound: Nc1nc(N)c2c(n1)CCC2CCCc1ccc(C(=O)NC(CCC(=O)O)C(=O)O)cc1 (stereo unspecified)
IC50 [1]: 3 nM
T/C [34]: 120%
T/C [2]: 158%
T/C [35]: 6%
T/C [36]: 9%
T/C [4]: 180%
T/C [37]: 1%
T/C [5]: 170%
T/C [6]: 147%
T/C [8]: 138%
T/C [38]: 38%
IC50 [11]: 5.1 nM
T/C [39]: 130%
T/C [40]: 71%
T/C [41]: 23%
IC50 [15]: 1.7 nM
T/C [26]: 31%
T/C [42]: 4%
T/C [43]: 49%
IC50 [19]: 19 nM
IC50 [20]: 1700 nM

Compound: Nc1nc2c(c(=O)[nH]1)C(CCc1ccc(C(=O)NC(CCC(=O)O)C(=O)O)cc1)CC2 (stereo unspecified)
IC50 [23]: 2.1 nM
IC50 [1]: > 1000 nM
IC50 [11]: > 1000 nM
IC50 [44]: > 1000 nM
IC50 [15]: > 1000 nM
IC50 [27]: > 1000 nM
